In patent US12679850B2, “TYK2 inhibitors and uses thereof” (Alumis Inc., priority 2020, dated 2026) one finds Kd and IC50 data, which are given here for 1 compound.

The target of assay [1] is T1, human TYK2 (JH2domain-pseudokinase) (Homo sapiens, UniProt P29597).
T1 construct: host or cells: transiently transfected HEK293 cells; unpurified extract used
Briefly: TYK2 JH2 domain binding assay (KINOMEscan). The following applies: 11-point 3-fold dilution, top concentration 30,000 nM, duplicate. The protocol: Binding constants for the compounds described herein against the JH2 domain were determined by the following protocol for a KINOMEscan® assay (DiscoveRx). A fusion protein of a partial length construct of human TYK2 (JH2domain-pseudokinase) (amino acids G556 to D888 based on reference sequence NP_003322.3) and the DNA binding domain of NFkB is expressed in transiently transfected HEK293 cells. From these HEK 293 cells, extracts are prepared in M-PER extraction buffer (Pierce) in the presence of Protease Inhibitor Cocktail Complete (Roche) and Phosphatase Inhibitor Cocktail Set II (Merck) per manufacturers' instructions. The TYK2 (JH2domain-pseudokinase) fusion protein is labeled with a chimeric double-stranded DNA tag containing the NFkB binding site fused to an amplicon for qPCR readout, which is added directly to the expression extract (the final concentration of DNA-tag in the binding reaction is 0.1 nM). […]
The binding reaction is assembled by combining 16 μl of DNA-tagged kinase extract, 3.8 μl liganded affinity beads, and 0.18 μl test compound (PBS/0.05% Tween 20/10 mM DTT/0.1% BSA/2 μg/ml sonicated salmon sperm DNA)]. […] Kds were determined using an 11-point 3-fold compound dilution series with three DMSO control points. […]
Test compounds are prepared as 111× stocks in 100% DMSO. Kds were determined using an 11-point 3-fold compound dilution series with three DMSO control points. […]

The subject of another assay is pSTAT5 in Human PBMC. The experiment in a line: INFα induced pSTAT5 in human PBMC. It is filed as cell-based. The settings on record: fresh human PBMC, compound 1 hour, INFα 5000 units/ml for 15 minutes, MSD Phospho STAT5 kit; read-out: p-STAT5 IC50. The protocol: Fresh Human PBMCs were resuspended in RPMI 1640 medium with 10% FBS. Cells were seeded in a round bottom 96-well plate at the concentration of 200,000 cells/well. A 10-point dilution series of test compound (top dose 10 uM, 1:5 dilution) was added to the well using the liquid dispenser (Tecan D300e) and incubated for 1 hour at 37 C. Then human INFα recombinant protein (R&D Systems) was added to the well at the final concentration of 5000 units/ml and incubated for 15 minutes at 37 C. Cell lysates were prepared and analyzed by Phospho STAT5 (Tyr693) Kit (Meso Scale Discovery) following manufacturer's protocol.
For calculation of the inhibition rate, the relative pSTAT5 signal of each well=pSTAT5 signal of each well−the average pSTAT5 signal of baseline.
The inhibition %=(the average pSTAT5 signal of INFα treatment wells−the relative of pSTAT5 signal in each compound containing well)/the average pSTAT5 signal of INFα treatment wells*100%
The curve was plotted as the inhibition % (y-axis) vs. compounds concentration (x-axis) and was fitted with log(inhibitor) vs. normalized response—Variable slope by GraphPad Prism7.0.

T1 sequence (P29597 556-888): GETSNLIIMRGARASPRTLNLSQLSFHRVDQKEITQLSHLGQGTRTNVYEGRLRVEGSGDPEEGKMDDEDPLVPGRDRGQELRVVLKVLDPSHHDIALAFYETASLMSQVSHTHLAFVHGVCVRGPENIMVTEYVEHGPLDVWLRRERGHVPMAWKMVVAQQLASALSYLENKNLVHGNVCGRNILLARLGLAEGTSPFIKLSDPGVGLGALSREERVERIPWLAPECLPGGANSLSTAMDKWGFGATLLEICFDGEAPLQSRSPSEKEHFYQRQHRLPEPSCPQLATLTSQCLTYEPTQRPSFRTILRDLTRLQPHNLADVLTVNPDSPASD

As a reminder, the Kd is the free concentration of one partner at which half of the binding sites on the other are occupied at equilibrium, for simple one-to-one binding. A higher Kd goes with a looser complex. What is called IC50 is the concentration at which inhibition is half-maximal. The compound `[2H]C([2H])([2H])n1nnc2c3cc(cc21)CO[C@@H]1CCC[C@H]1NC(=O)c1cnc2c(NC)cc(nn12)N3` [Example 1] had a Kd in assay [1] of 0.0022 nM. Also, the IC50 with pSTAT5 in Human PBMC was determined as 1.7 nM.
